For 31 molecules, zone of inhibition and MIC results are on record in ChEMBL document CHEMBL3046848, “Synthesis and biological evaluation of novel series of thieno[2,3-d]pyrimidine derivatives as anticancer and antimicrobial agents” (2013).

Type in all cases: functional
For assay [1], the system named is Pseudomonas aeruginosa. Nature of the assay: Antimicrobial activity against Pseudomonas aeruginosa ATCC9027 assessed as diameter of growth inhibition zone at 1 mg/ml after 24 hr by agar cup diffusion method. Conditions: ATCC9027, 24 h, read-out: IZ.
Assay [2] relates to Escherichia coli. Put plainly: Antimicrobial activity against Escherichia coli ATCC8739 assessed as diameter of growth inhibition zone at 1 mg/ml after 24 hr by agar cup diffusion method. The note with it: ATCC8739, 24 h, read-out: IZ.
For assay [3], the system named is Staphylococcus aureus. Nature of the assay: Antimicrobial activity against Staphylococcus aureus ATCC6538P assessed as diameter of growth inhibition zone at 1 mg/ml after 24 hr by agar cup diffusion method. Conditions: read-out: IZ.
In assay [4] the test system is Candida albicans. Put plainly: Antimicrobial activity against Candida albicans ATCC2091 assessed as diameter of growth inhibition zone at 1 mg/ml after 48 hr by agar cup diffusion method. Conditions: ATCC2091, 48 h, read-out: IZ.
Assay [5] has as its system Pseudomonas aeruginosa. Put plainly: Antimicrobial activity against Pseudomonas aeruginosa ATCC9027 assessed as growth inhibition after 48 hr by two-fold serial dilution method. Conditions: ATCC9027, 48 h.
Assay [6] deals with Candida albicans. Nature of the assay: Antimicrobial activity against Candida albicans ATCC2091 assessed as growth inhibition after 48 hr by two-fold serial dilution method. Conditions: ATCC2091, 48 h.
The test system of assay [7] is Escherichia coli. Nature of the assay: Antimicrobial activity against Escherichia coli ATCC8739 assessed as growth inhibition after 48 hr by two-fold serial dilution method. Conditions: ATCC8739, 48 h.
In assay [8] the test system is Staphylococcus aureus. Put plainly: Antimicrobial activity against Staphylococcus aureus ATCC6538P assessed as growth inhibition after 48 hr by two-fold serial dilution method.

The structures appear in SMILES notation. In brackets after ≈: the same amount, converted by molar mass.

Regarding `Cc1c(C(N)=O)sc2nc[nH]c(=O)c12`, the zone of inhibition at 1000 µg/mL in assay [1] is 12 mm; in assay [2] it was 13 mm; in assay [3] it was 10 mm; in assay [4] it was 15 mm.

In the case of `Cc1c(C(N)=O)sc2nc(S(=O)(=O)Cc3ccccc3)n(-c3ccccc3)c(=O)c12`, the zone of inhibition at 1000 µg/mL in assay [1] was 12 mm; in assay [2] it was 15 mm; in assay [3] it was 10 mm; in assay [4] it was 15 mm.

For orientation: MIC means the smallest concentration in the dilution series that meets the test's criterion for growth inhibition. `Cc1c(C(N)=O)sc2nc(SCC3CO3)n(-c3ccccc3)c(=O)c12` (centres undefined): the zone of inhibition at 1000 µg/mL came to 17 mm in assay [1], 15 mm in assay [2], 10 mm in assay [3] and 15 mm in assay [4]. In assay [5], the MIC was found to be 125 µg/mL (≈ 335 µM).

For the molecule `Clc1ccccc1C(c1ccccc1)(c1ccccc1)n1ccnc1` [CLOTRIMAZOLE], the zone of inhibition at 1000 µg/mL in assay [4] was 28 mm. For the same molecule, the minimum inhibitory concentration (MIC) in assay [6] is 7.81 µg/mL (≈ 22.6 µM).

As for `CCS(=O)(=O)c1nc2sc(C(N)=O)c(C)c2c(=O)n1-c1ccccc1`, the zone of inhibition at 1000 µg/mL in assay [1] was 12 mm; in assay [2] it was 13 mm; in assay [3] it was 10 mm; in assay [4], 15 mm.

With `Cc1c(C(N)=O)sc2nc(C)n(/N=c3\scc(-c4ccc(Br)cc4)n3-c3ccccc3)c(=O)c12`, the zone of inhibition at 1000 µg/mL in assay [1] was found to be 12 mm; in assay [2], 15 mm; in assay [3] it was 10 mm; in assay [4], 15 mm.

In the case of `CCOC(=O)c1c(NC(C)=O)sc(C(N)=O)c1C`, the zone of inhibition at 1000 µg/mL in assay [1] is 12 mm; in assay [2], 16 mm; in assay [3], 10 mm; in assay [4], 15 mm. Besides, in assay [7], the MIC was 125 µg/mL (≈ 462 µM).

As for `CCCn1cnc2sc(C(N)=O)c(C)c2c1=O`, the zone of inhibition at 1000 µg/mL in assay [1] is 12 mm; in assay [2], 17 mm; in assay [3] it was 10 mm; in assay [4], 15 mm. Moreover, in assay [7], the MIC turned out to be 125 µg/mL (≈ 497 µM).

`Cc1c(C(N)=O)sc2nc(C)n(NC(=S)Nc3ccccc3)c(=O)c12`: the zone of inhibition at 1000 µg/mL in assay [1] was 12 mm; in assay [2], 15 mm; in assay [3], 10 mm; in assay [4] it was 15 mm.

As for `Cc1c(C(N)=O)sc2nc(C)n(N)c(=O)c12`, the zone of inhibition at 1000 µg/mL amounted to 17 mm in assay [1], 15 mm in assay [2], 10 mm in assay [3] and 15 mm in assay [4]. Also, in assay [5], the MIC was found to be 125 µg/mL (≈ 525 µM).

As to `CSc1nc2sc(C(N)=O)c(C)c2c(=O)n1-c1ccccc1`, the zone of inhibition at 1000 µg/mL turned out to be 12 mm in assay [1], 13 mm in assay [2], 10 mm in assay [3] and 15 mm in assay [4].

As to `Cc1c(C(N)=O)sc2ncn(-c3ccccn3)c(=O)c12`, the zone of inhibition at 1000 µg/mL in assay [1] stood at 12 mm; in assay [2], 13 mm; in assay [3], 10 mm; in assay [4], 15 mm.

Regarding `Cc1c(C(N)=O)sc2nc(C)n(/N=c3\scc(-c4ccc(Cl)cc4)n3Cc3ccccc3)c(=O)c12`, the zone of inhibition at 1000 µg/mL came to 17 mm in assay [1], 15 mm in assay [2], 10 mm in assay [3] and 15 mm in assay [4]. Besides, the MIC in assay [5] was found to be 125 µg/mL (≈ 239 µM).

For `Cc1c(C(N)=O)sc2nc(S(C)(=O)=O)n(-c3ccccc3)c(=O)c12`, the zone of inhibition at 1000 µg/mL was determined as 12 mm in assay [1], 16 mm in assay [2], 11 mm in assay [3] and 15 mm in assay [4].

For the molecule `Cc1c(C(N)=O)sc2nc(C)n(/N=C3\SCC(=O)N3c3ccccc3)c(=O)c12`, the zone of inhibition at 1000 µg/mL worked out at 12 mm in assay [1], 15 mm in assay [2], 14 mm in assay [3] and 16 mm in assay [4]. Also, the MIC in assay [8] was found to be 250 µg/mL (≈ 605 µM).

Regarding `Cc1c(C(N)=O)sc2nc(C)n(NC(=S)NCc3ccccc3)c(=O)c12`, the zone of inhibition at 1000 µg/mL in assay [1] is 12 mm; in assay [2], 13 mm; in assay [3], 12 mm; in assay [4] it was 15 mm.

On to `Cc1c(C(N)=O)sc2nc(C)n(/N=C3\SCC(=O)N3Cc3ccccc3)c(=O)c12`, for which the zone of inhibition at 1000 µg/mL in assay [1] turned out to be 12 mm; in assay [2], 15 mm; in assay [3], 14 mm; in assay [4], 16 mm. For the same molecule, the MIC in assay [8] came out at 250 µg/mL (≈ 585 µM).

For `CC1(C)S[C@@H]2[C@H](NC(=O)[C@H](N)c3ccccc3)C(=O)N2[C@H]1C(=O)O` [AMPICILLIN], the zone of inhibition at 1000 µg/mL was 18 mm in assay [1], 26 mm in assay [2] and 30 mm in assay [3]. The values for the MIC in assay [5], in assay [7] and in assay [8] were 125 µg/mL (≈ 358 µM), 7.81 µg/mL (≈ 22.4 µM) and 3.91 µg/mL (≈ 11.2 µM), respectively.

Take `Cc1c(C(N)=O)sc2nc(S)n(-c3ccccc3)c(=O)c12`: the zone of inhibition at 1000 µg/mL in assay [1] was found to be 12 mm; in assay [2], 15 mm; in assay [3], 12 mm; in assay [4], 15 mm.

Take `Cc1ccc(NC(=O)CSc2nc3sc(C(N)=O)c(C)c3c(=O)n2-c2ccccc2)cc1`: the zone of inhibition at 1000 µg/mL in assay [1] was 12 mm; in assay [2], 15 mm; in assay [3], 10 mm; in assay [4] it was 15 mm.

With `Cc1c(C(N)=O)sc2ncn(C3CCCCC3)c(=O)c12`, the zone of inhibition at 1000 µg/mL came to 12 mm in assay [1], 17 mm in assay [2], 10 mm in assay [3] and 15 mm in assay [4]. Also, in assay [7], the MIC is 125 µg/mL (≈ 429 µM).

With `Cc1c(C(N)=O)sc2nc(SCC(=O)Nc3ccccc3)n(-c3ccccc3)c(=O)c12`, the zone of inhibition at 1000 µg/mL in assay [1] is 12 mm; in assay [2], 15 mm; in assay [3], 10 mm; in assay [4], 15 mm.

On to `Cc1c(C(N)=O)sc2nc(SCC(O)CN3CCCCC3)n(-c3ccccc3)c(=O)c12` (centres undefined), for which the zone of inhibition at 1000 µg/mL in assay [1] was 12 mm; in assay [2], 15 mm; in assay [3], 10 mm; in assay [4], 15 mm.

As for `CCOC(=O)CSc1nc2sc(C(N)=O)c(C)c2c(=O)n1-c1ccccc1`, the zone of inhibition at 1000 µg/mL amounted to 12 mm in assay [1], 13 mm in assay [2], 10 mm in assay [3] and 15 mm in assay [4].

`CC(=O)CSc1nc2sc(C(N)=O)c(C)c2c(=O)n1-c1ccccc1`: the zone of inhibition at 1000 µg/mL was 12 mm in assay [1], 15 mm in assay [2], 13 mm in assay [3] and 15 mm in assay [4]. The minimal inhibitory concentration (MIC) in assay [8] worked out at 250 µg/mL (≈ 669 µM).

As to `CCSc1nc2sc(C(N)=O)c(C)c2c(=O)n1-c1ccccc1`, the zone of inhibition at 1000 µg/mL worked out at 12 mm in assay [1], 16 mm in assay [2], 10 mm in assay [3] and 15 mm in assay [4].

For the molecule `Cc1c(C(N)=O)sc2nc(SCc3ccccc3)n(-c3ccccc3)c(=O)c12`, the zone of inhibition at 1000 µg/mL was 12 mm in assay [1], 15 mm in assay [2], 10 mm in assay [3] and 15 mm in assay [4].

`Cc1c(C(N)=O)sc2nc(C)n(/N=c3\scc(-c4ccc(Cl)cc4)n3-c3ccccc3)c(=O)c12`: the zone of inhibition at 1000 µg/mL in assay [1] was found to be 12 mm; in assay [2], 16 mm; in assay [3], 10 mm; in assay [4] it was 15 mm. Besides, in assay [7], the MIC was found to be 125 µg/mL (≈ 246 µM).

Consider `Cc1c(C(N)=O)sc2ncn(Cc3ccccc3)c(=O)c12`, for which the zone of inhibition at 1000 µg/mL turned out to be 16 mm in assay [1], 15 mm in assay [2], 10 mm in assay [3] and 15 mm in assay [4].

On to `Cc1c(C(N)=O)sc2nc(C)n(/N=c3\scc(-c4ccc(Br)cc4)n3Cc3ccccc3)c(=O)c12`, for which the zone of inhibition at 1000 µg/mL in assay [1] amounted to 12 mm; in assay [2], 15 mm; in assay [3] it was 11 mm; in assay [4], 15 mm.

For the molecule `Cc1c(C(N)=O)sc2nc(SCC(O)CN3CCOCC3)n(-c3ccccc3)c(=O)c12` (centres undefined), the zone of inhibition at 1000 µg/mL in assay [1] came to 12 mm; in assay [2], 13 mm; in assay [3], 10 mm; in assay [4], 15 mm.
